The values that follow come from patent US20070049593A1 (priority 2004, published 2007).

Where a name gives a salt, the structure may show the parent alone.

For the first experiment, the target named is T1, HCV polymerase (Hepatitis C virus genotype 1b, UniProt P26663).
T1 construct: a region encoding NS5B (J Virol 1991 March, 65(3), 1105-13, 544 amino acids after deletion of 47 amino acids on the C-terminal); 6xHis (C); made in house; host or cells: Escherichia coli
T1 sequence (P26663 2420-2963): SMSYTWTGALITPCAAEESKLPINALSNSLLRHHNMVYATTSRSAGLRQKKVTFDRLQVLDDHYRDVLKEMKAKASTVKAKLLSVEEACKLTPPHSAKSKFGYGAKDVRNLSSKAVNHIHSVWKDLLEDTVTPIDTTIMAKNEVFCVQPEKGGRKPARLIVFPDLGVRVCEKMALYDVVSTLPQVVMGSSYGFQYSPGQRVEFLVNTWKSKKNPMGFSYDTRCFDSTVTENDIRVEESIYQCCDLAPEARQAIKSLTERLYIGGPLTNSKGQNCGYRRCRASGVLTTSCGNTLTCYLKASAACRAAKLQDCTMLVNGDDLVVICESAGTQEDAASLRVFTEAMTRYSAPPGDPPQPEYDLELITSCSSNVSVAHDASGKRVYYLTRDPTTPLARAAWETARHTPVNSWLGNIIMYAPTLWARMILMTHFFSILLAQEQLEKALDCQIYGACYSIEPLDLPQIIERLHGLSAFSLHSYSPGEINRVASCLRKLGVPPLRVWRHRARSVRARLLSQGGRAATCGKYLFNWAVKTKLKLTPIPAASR
In words: biochemical. Further details: species or system HCV BK strain.
Conditions: not given
The method, boiled down:
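Recombinant HCV BK-strain NS5B (C-terminal 47 aa deleted, His6-tagged, E. coli), 0.5 μg/ml, run with 5 μg/ml in vitro-transcribed RNA template (polyU/3′X), ATP/GTP/CTP 50 μM, UTP 2 μM plus [3H]UTP, pH 7.5, 25° C, 90 min. TCA-precipitated RNA counted by scintillation; IC50 from activity with vs without compound.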
Compound `CC(C)(COc1ccc(N2CCCC2=O)cc1)NC(=O)c1ccc2c(C3CCCCC3)c3n(c2c1)CCOc1ccccc1-3` [Example 2-226, N-{1,1-dimethyl-2-[4-(2-oxopyrrolidin-1-yl)phenoxy]ethyl}-12-cyclohexyl-6,7-dihydro-5-oxa-7a-azadibenzo[a,e]azulene-9-carboxamide] showed an IC50 of under 100 nM. Regarding `Cc1nc(C(C)(C)NC(=O)c2ccc3c(C4CCCCC4)c4n(c3c2)CCOc2ccccc2-4)[nH]c1C(=O)O` [Example 2-227, 2-{1-[(12-cyclohexyl-6,7-dihydro-5-oxa-7a-azadibenzo[a,e]azulene-9-carbonyl)amino]-1-methylethyl}-5-methyl-3H-imidazole-4-carboxylic acid], the half-maximal inhibitory concentration (IC50) was under 100 nM. The same measure, in the same setting: the same measure for `CC(C)(NC(=O)c1ccc2c(C3CCCCC3)c3n(c2c1)CCOc1ccccc1-3)c1ccc(OCc2ccccc2)cc1` [Example 2-228, N-[1-(4-benzyloxyphenyl)-1-methylethyl]-12-cyclohexyl-6,7-dihydro-5-oxa-7a-azadibenzo[a,e]azulene-9-carboxamide]: under 100 nM; for `O=C(O)CN1CCC(NC(=O)c2ccc3c(C4CCCCC4)c4n(c3c2)CCOc2ccccc2-4)(C(=O)O)CC1` [Example 2-229, 1-carboxymethyl-4-[(12-cyclohexyl-6,7-dihydro-5-oxa-7a-azadibenzo[a,e]azulene-9-carbonyl)amino]piperidine-4-carboxylic acid monohydrochloride]: under 100 nM; for `CC(C)(NC(=O)c1ccc2c(C3CCCCC3)c3n(c2c1)CCOc1ccccc1-3)c1ccc(O)cc1` [Example 2-230, N-[1-(4-hydroxyphenyl)-1-methylethyl]-12-cyclohexyl-6,7-dihydro-5-oxa-7a-azadibenzo[a,e]azulene-9-carboxamide]: under 100 nM. Take `CCN(CCN1CCCCCC1)c1cccc2c1OCCn1c-2c(C2CCCCC2)c2ccc(C(=O)O)cc21` [Example 2-231, 4-{N-[2-(azepan-1-yl)ethyl]-N-ethylamino}-12-cyclohexyl-6,7-dihydro-5-oxa-7a-azadibenzo[a,e]azulene-9-carboxylic acid dihydrochloride]: the IC50 was under 100 nM. `CCN(CCC1CCN(C(C)=O)CC1)c1cccc2c1OCCn1c-2c(C2CCCCC2)c2ccc(C(=O)O)cc21` [Example 2-232, 4-{N-[2-(1-acetylpiperidin-4-yl)ethyl]-N-ethylamino)-12-cyclohexyl-6,7-dihydro-5-oxa-7a-azadibenzo[a,e]azulene-9-carboxylic acid] displayed an IC50 of under 100 nM.

Compound `CC(=O)N1CCC(CCN(C(C)=O)c2cccc3c2OCCn2c-3c(C3CCCCC3)c3ccc(C(=O)O)cc32)CC1` [Example 2-233, 4-(N-acetyl-N-[2-(1-acetylpiperidin-4-yl)ethyl]amino}-12-cyclohexyl-6,7-dihydro-5-oxa-7a-azadibenzo[a,e]azulene-9-carboxylic acid] came in with an IC50 of under 100 nM. The same measure, in the same setting: the same measure for `CC(C)(CN1CCC(O)CC1)NC(=O)c1ccc2c(C3CCCCC3)c3n(c2c1)CCOc1ccccc1-3` [Example 2-234, N-[2-(4-hydroxypiperidin-1-yl)-1,1-dimethylethyl]-12-cyclohexyl-6,7-dihydro-5-oxa-7a-azadibenzo[a,e]azulene-9-carboxamide]: 100 to 1000 nM; for `COC(=O)c1nc(C(C)(C)NC(=O)c2ccc3c(C4CCCCC4)c4n(c3c2)CCOc2ccccc2-4)oc1C` [Example 2-235, methyl 2-{1-[(12-cyclohexyl-6,7-dihydro-5-oxa-7a-azadibenzo[a,e]azulene-9-carbonyl)amino]-1-methylethyl}-5-methyloxazole-4-carboxylate]: under 100 nM; for `Cc1oc(C(C)(C)NC(=O)c2ccc3c(C4CCCCC4)c4n(c3c2)CCOc2ccccc2-4)nc1C(=O)O` [Example 2-236, 2-{1-[(12-cyclohexyl-6,7-dihydro-5-oxa-7a-azadibenzo[a,e]azulene-9-carbonyl)amino]-1-methylethyl}-5-methyloxazole-4-carboxylic acid]: under 100 nM. On the same count and under the same terms, the same measure for `COc1ccc(C[C@H](NC(=O)c2ccc3c(C4CCCCC4)c4n(c3c2)CCOc2ccccc2-4)C(=O)O)cc1` [Example 2-237, (S)-2-[(12-cyclohexyl-6,7-dihydro-5-oxa-7a-azadibenzo[a,e]azulene-9-carbonyl)amino]-3-(4-methoxyphenyl)propionic acid]: under 100 nM. In the case of `COC(=O)[C@@H](Cc1ccc(O)cc1)NC(=O)c1ccc2c(C3CCCCC3)c3n(c2c1)CCOc1ccccc1-3` [Example 2-238, methyl (R)-2-[(12-cyclohexyl-6,7-dihydro-5-oxa-7a-azadibenzo[a,e]azulene-9-carbonyl)amino]-3-(4-hydroxyphenyl)propionate], the IC50 was under 100 nM.

Compound `CC(C)(CN[C@H]1CC[C@H](O)CC1)NC(=O)c1ccc2c(C3CCCCC3)c3n(c2c1)CCOc1ccccc1-3` [Example 2-239, N-[2-(trans-4-hydroxycyclohexylamino)-1,1-dimethylethyl]-12-cyclohexyl-6,7-dihydro-5-oxa-7a-azadibenzo[a,e]azulene-9-carboxamide] showed a half-inhibitory concentration (IC50) of 100 to 1000 nM. Take `CC(C)(NC(=O)c1ccc2c(C3CCCCC3)c3n(c2c1)CCOc1ccccc1-3)C(=O)N1CCCC(O)C1` (centres unmarked) [Example 2-240, N-[2-(3-hydroxypiperidin-1-yl)-1,1-dimethyl-2-oxoethyl]-12-cyclohexyl-6,7-dihydro-5-oxa-7a-azadibenzo[a,e]azulene-9-carboxamide]: the 50% inhibitory concentration (IC50) was under 100 nM. The same measure, in the same setting: the same measure for `CC(C)(NC(=O)c1ccc2c(C3CCCCC3)c3n(c2c1)CCOc1ccccc1-3)c1ccc(OCC(=O)O)cc1` [Example 2-241, (4-{1-[(12-cyclohexyl-6,7-dihydro-5-oxa-7a-azadibenzo[a,e]azulene-9-carbonyl)amino]-1-methylethyl}phenoxy)acetic acid]: under 100 nM; for `CC(C)(NC(=O)c1ccc2c(C3CCCCC3)c3n(c2c1)CCOc1ccccc1-3)C(=O)N1CCC(CO)CC1` [Example 2-242, N-[2-(4-hydroxymethylpiperidin-1-yl)-1,1-dimethyl-2-oxoethyl]-12-cyclohexyl-6,7-dihydro-5-oxa-7a-azadibenzo[a,e]azulene-9-carboxamide]: under 100 nM. Take `CCN1CCC(CCN(CC)c2cccc3c2OCCn2c-3c(C3CCCCC3)c3ccc(C(=O)O)cc32)CC1` [Example 2-243, 12-cyclohexyl-4-{N-ethyl-N-[2-(1-ethylpiperidin-4-yl)ethyl]amino}-6,7-dihydro-5-oxa-7a-azadibenzo[a,e]azulene-9-carboxylic acid dihydrochloride]: the IC50 was under 100 nM. Same read-out and setting: then `CC(C)(CN1CCN(CCO)CC1)NC(=O)c1ccc2c(C3CCCCC3)c3n(c2c1)CCOc1ccccc1-3` [Example 2-244, N-{2-[4-(2-hydroxyethyl)piperazin-1-yl]-1,1-dimethylethyl}-12-cyclohexyl-6,7-dihydro-5-oxa-7a-azadibenzo[a,e]azulene-9-carboxamide], with 100 to 1000 nM.

Staying with this experiment, now noted: 25° C., 90 min; [5,6-3H]UTP incorporation into RNA; read-out: HCV polymerase inhibitory activity IC50.
As to `CNC(=O)[C@H](Cc1ccc(O)cc1)NC(=O)c1ccc2c(C3CCCCC3)c3n(c2c1)CCOc1ccccc1-3` [Example 2-245, [(S)-2-(4-hydroxyphenyl)-1-(methylcarbamoyl)ethyl]-12-cyclohexyl-6,7-dihydro-5-oxa-7a-azadibenzo[a,e]azulene-9-carboxamide], the concentration for half-maximal inhibition (IC50) was under 100 nM.

One may read the IC50 as the concentration that gives 50% inhibition.
